For one data set, the system named is mouse spleen cell. The data set can be described thus: cells. It is filed as cell-based. Conditions: Mus musculus, 24 h, read-out: Interferon-inducing activity: Minimum effective concentration.
The subject of the next data set is Balb/c male mouse. The data set can be described thus: Interferon-inducing activity in mouse (in vivo), serum interferon titer after oral dosing.
Data set [1] is described as follows: Solubility in citric acid/disodium phosphate buffers. The conditions noted are these: for solubility at 30 min: thermodynamic from solid.
Procedure: 5.53% citric acid (monohydrate) and 1.75% disodium phosphate (anhydrous) were mixed together to prepare buffers (pH 2.5, 5.5, 7.4). A compound was added thereto, the mixture was stirred in a vortex mixer and subjected to ultrasonication for 30 minutes. Thereafter, the resultant was stirred in a vortex mixer again and then centrifuged at 15,000 rpm for 20 minutes. The levels of the compounds in the supernatants were then quantified by HPLC.
A further data set concerns IL-4 production. Briefly: Inhibitory activity against Th2 cytokine produced from sensitized spleen cells: IL-4. Format: cell-based, mouse. The conditions noted are these: Mus musculus, 72 h, read-out: Inhibitory activity against IL-4 production. As to the method:
(§1) A 7-week-old BALB/c mouse was immunized intraperitoneally with aluminum hydroxide gel (4 mg, 100 μl) having 10 μg of ovalbumin adsorbed thereon, and it was subjected to additional immunization with the same agent 14 days later. Seven days thereafter, spleen was taken out, and suspended in RPMI-1640 comprising inactivated fetal bovine serum (10%), 2-mercaptoethanol ([…]), penicillin G (100 U/ml), and streptomycin (100 μg/ml). Thus, a splenic cell suspension was prepared. Ovalbumin (0.5 mg/ml) and a test compound were added to a splenic cell suspension (5×10^6 cell/200 μl/well), and the resultant was cultured at 37° C. in the presence of 5% CO2 for 3 days. The cytokine level in the culture supernatant was quantified by ELISA. IFN-γ and IL-4 were assayed using a kit available from Amersham, and IL-5 was assayed using a kit available from Endogen.

Another data set has as its system IL-5 production. Briefly: Inhibitory activity against Th2 cytokine produced from sensitized spleen cells: IL-5. Format: cell-based, mouse. Conditions: Mus musculus, 72 h, read-out: Inhibitory activity against IL-5 production. As to the method: as §1
[2] abbreviates: dosage 0.1 mg/kg oral, serum 2 h after dosing, Balb/c mouse.
[3] abbreviates: dosage 0.3 mg/kg oral, serum 2 h after dosing, Balb/c mouse.
[4] abbreviates: citric acid/disodium phosphate buffer, pH 2.5, aqueous buffer.
Where [5] appears, read: citric acid/disodium phosphate buffer, pH 5.5, aqueous buffer.
Setting [6] is: citric acid/disodium phosphate buffer, pH 7.4, aqueous buffer.

≈ marks a conversion by molar mass, not a printed value. Bounds are passed on as bounds.

Turning to `CCCCOc1nc(N)c2nc(O)n(Cc3ccc(OCC)nc3)c2n1` [Example 3, 2-Butoxy-9-(6-ethoxy-3-pyridylmethyl)-8-hydroxyadenine], in the data set with mouse spleen cell, the minimal effective concentration amounted to 0.001 µM. Further, the Interferon-inducing activity with Balb/c male mouse (po, 0.1 mg/kg, 2 h) was 353 ± 73 U/ml; in the data set with Balb/c male mouse (po, 0.3 mg/kg, 2 h) it was 1966 ± 532 U/ml.

As for `CCCCOc1ccc(Cn2c(O)nc3c(N)nc(OCCCC)nc32)cn1` [Example 4, 2-Butoxy-9-(6-n-butoxy-3-pyridylmethyl)-8-hydroxyadenine], the minimal effective concentration with mouse spleen cell amounted to 0.01 µM.

Consider `CCCCOc1nc(N)c2nc(O)n(Cc3cccnc3Cl)c2n1` [Example 5, 2-Butoxy-9-(2-chloro-3-pyridylmethyl)-8-hydroxyadenine], for which the minimal effective concentration in the data set with mouse spleen cell amounted to 0.003 µM. Further, the Interferon-inducing activity with Balb/c male mouse (po, 0.1 mg/kg, 2 h) amounted to 133 ± 33 U/ml; in the data set with Balb/c male mouse (po, 0.3 mg/kg, 2 h), 473 ± 9 U/ml.

Regarding `CCCCOc1nc(N)c2nc(O)n(Cc3cccnc3OC)c2n1` [Example 6, 2-Butoxy-8-hydroxy-9-(2-methoxy-3-pyridylmethyl)adenine], the minimal effective concentration in the data set on mouse spleen cell came out at 0.001 µM. Also, the Interferon-inducing activity in the data set on Balb/c male mouse (po, 0.1 mg/kg, 2 h) turned out to be 569 ± 42 U/ml; in the data set on Balb/c male mouse (po, 0.3 mg/kg, 2 h), 1222 ± 248 U/ml.

Take `CCCCOc1nc(N)c2nc(O)n(Cc3cnc(Cl)c(OC)c3)c2n1` [Example 7, 2-Butoxy-9-(6-chloro-5-methoxy-3-pyridylmethyl)-8-hydroxyadenine]: the minimal effective concentration in the data set on mouse spleen cell is 0.001 µM. For the same compound, the results for the Interferon-inducing activity in the data set with Balb/c male mouse (setting [2]) and in the data set with Balb/c male mouse (setting [3]) were 347 ± 149 U/ml and 845 ± 22 U/ml, respectively.

Turning to `CCCCOc1nc(N)c2nc(O)n(Cc3cccnc3)c2n1` [Example 8, 2-Butoxy-8-hydroxy-9-(3-pyridylmethyl)adenine], the minimal effective concentration with mouse spleen cell was determined as 0.001 µM. Also, the Interferon-inducing activity with Balb/c male mouse (po, 0.01 mg/kg, 2 h) is reported as 13 ± 5 U/ml; with Balb/c male mouse (po, 0.03 mg/kg, 2 h), 167 ± 97 U/ml; in the data set with Balb/c male mouse (po, 0.1 mg/kg, 2 h), 725 ± 141 U/ml; in the data set on Balb/c male mouse (po, 0.3 mg/kg, 2 h) it was 936 ± 438 U/ml. Besides, the solubility at 30 min in data set [1] (setting [4]) came out at 784 µg/mL (≈ 2490 µM); in data set [1] (setting [5]) it was 20 µg/mL (≈ 63.6 µM); in data set [1] (setting [6]), 18 µg/mL (≈ 57.3 µM).

Regarding `CCCCOc1nc(N)c2nc(O)n(Cc3ccncc3)c2n1` [Example 9, 2-Butoxy-8-hydroxy-9-(4-pyridylmethyl)adenine], the minimal effective concentration in the data set with mouse spleen cell amounted to 0.003 µM. In the data set with Balb/c male mouse (po, 0.3 mg/kg, 2 h), this compound came in with an Interferon-inducing activity of 539 ± 107 U/ml. The results for the solubility at 30 min in data set [1] (setting [4]), in data set [1] (setting [5]) and in data set [1] (setting [6]) were 350 µg/mL (≈ 1110 µM), 4 µg/mL (≈ 12.7 µM) and 3 µg/mL (≈ 9.54 µM), respectively.

In the case of `CCCCOc1nc(N)c2nc(O)n(Cc3cnccn3)c2n1` [Example 10], the Interferon-inducing activity in the data set on Balb/c male mouse (dosage 0.03 mg/kg oral, serum 2 h after dosing, Balb/c mouse) is given as 89 ± 22 U/ml; with Balb/c male mouse (setting [2]), 409 ± 267 U/ml; in the data set with Balb/c male mouse (setting [3]) it was 733 ± 256 U/ml. The figures for the activity at 0.001 µM in the data set with IL-4 production and in the data set with IL-5 production were 54% and 91%, respectively. For the same compound, the results for the activity at 0.01 µM with IL-4 production and in the data set with IL-5 production were 3% and 32%, respectively. The values for the activity at 0.1 µM with IL-4 production and in the data set on IL-5 production were under 1% and 15%, respectively. Besides, the solubility at 30 min turned out to be 34 µg/mL (≈ 108 µM) in data set [1] (pH 2.5, aqueous buffer); 15 µg/mL (≈ 47.6 µM) in data set [1] (pH 5.5, aqueous buffer); 10 µg/mL (≈ 31.7 µM) in data set [1] (pH 7.4, aqueous buffer).

For `CCCCOc1nc(N)c2nc(O)n(Cc3cnc(Cl)c(Cl)c3)c2n1` [Example 11, 2-Butoxy-9-(5,6-dichloro-3-pyridylmethyl)-8-hydroxyadenine], the minimal effective concentration with mouse spleen cell was 0.003 µM. For the same compound, the figures for the Interferon-inducing activity with Balb/c male mouse (setting [2]) and with Balb/c male mouse (setting [3]) were 279 ± 177 U/ml and 568 ± 160 U/ml, respectively.

Regarding `CCCCOc1nc(N)c2nc(O)n(Cc3ccc(Cl)nc3Cl)c2n1` [Example 12, 2-Butoxy-9-(2,6-dichloro-3-pyridylmethyl)-8-hydroxyadenine], the minimal effective concentration in the data set with mouse spleen cell was 0.01 µM. The compound also came in with an Interferon-inducing activity in the data set with Balb/c male mouse (setting [3]) of 31 ± 5 U/ml.

In the case of `CCCCOc1nc(N)c2nc(O)n(Cc3ccc(N4CCCCC4)nc3)c2n1` [Example 13, 2-Butoxy-9-(6-piperidino-3-pyridylmethyl)-8-hydroxyadenine], the minimal effective concentration with mouse spleen cell was found to be 0.003 µM. The compound further returned an Interferon-inducing activity in the data set with Balb/c male mouse (po, 0.3 mg/kg, 2 h) of 304 ± 138 U/ml.

As for `CCCCOc1nc(N)c2nc(O)n(Cc3ccc(N4CCCC4)nc3)c2n1` [Example 14, 2-Butoxy-9-(6-(1-pyrrolidinyl)-3-pyridylmethyl)-8-hydroxyadenine], in the data set with mouse spleen cell, the minimal effective concentration came out at 0.001 µM. The same compound yielded an Interferon-inducing activity with Balb/c male mouse (po, 0.3 mg/kg, 2 h) of 570 ± 63 U/ml.

As for `CCCCOc1nc(N)c2nc(O)n(Cc3ccc(N4CCOCC4)nc3)c2n1` [Example 15, 2-Butoxy-9-(6-morpholino-3-pyridylmethyl)-8-hydroxyadenine], the minimal effective concentration in the data set on mouse spleen cell was 0.001 µM. Moreover, the Interferon-inducing activity is 52 ± 32 U/ml with Balb/c male mouse (po, 0.1 mg/kg, 2 h) and 603 ± 147 U/ml in the data set with Balb/c male mouse (po, 0.3 mg/kg, 2 h). The solubility at 30 min was 140 µg/mL (≈ 350 µM) in data set [1] (setting [4]), 1 µg/mL (≈ 2.5 µM) in data set [1] (setting [5]) and under 1 µg/mL in data set [1] (setting [6]).

For `CCCCOc1nc(N)c2nc(O)n(Cc3ccc(N(C)C)nc3)c2n1` [Example 16, 2-Butoxy-9-(6-dimethylamino-3-pyridylmethyl)-8-hydroxyadenine], in the data set on mouse spleen cell, the minimal effective concentration came to 0.001 µM. In addition, the Interferon-inducing activity in the data set on Balb/c male mouse (po, 0.1 mg/kg, 2 h) is 251 ± 46 U/ml; with Balb/c male mouse (po, 0.3 mg/kg, 2 h), 716 ± 155 U/ml. The same compound had a solubility at 30 min in data set [1] (setting [4]) of 293 µg/mL (≈ 820 µM).

With `CCCCNc1nc(N)c2nc(O)n(Cc3cccnc3Cl)c2n1` [Example 18, 2-Butylamino-9-(2-chloro-3-pyridylmethyl)-8-hydroxyadenine], in the data set with mouse spleen cell, the minimal effective concentration turned out to be 0.01 µM. The Interferon-inducing activity in the data set on Balb/c male mouse (po, 0.3 mg/kg, 2 h) was 94 ± 49 U/ml.

Regarding `CCCCNc1nc(N)c2nc(O)n(Cc3ccc(Cl)nc3Cl)c2n1` [Example 23, 2-Butylamino-9-(2,6-dichloro-3-pyridylmethyl)-8-hydroxyadenine], in the data set on mouse spleen cell, the minimal effective concentration is 0.01 µM. The Interferon-inducing activity is given as 42 ± 7 U/ml in the data set with Balb/c male mouse (setting [2]) and 414 ± 118 U/ml in the data set on Balb/c male mouse (setting [3]).

With `CCCCNc1nc(N)c2nc(O)n(Cc3ccc(N(C)C)nc3)c2n1` [Example 24, 2-Butylamino-9-(6-dimethylamino-3-pyridylmethyl)-8-hydroxyadenine], the minimal effective concentration with mouse spleen cell was found to be 0.003 µM. In the data set with Balb/c male mouse (po, 0.3 mg/kg, 2 h), this compound displayed an Interferon-inducing activity of 403 ± 146 U/ml. Besides, the results for the solubility at 30 min in data set [1] (setting [4]), in data set [1] (setting [5]) and in data set [1] (setting [6]) were 27000 µg/mL (≈ 75800 µM), 22 µg/mL (≈ 61.7 µM) and 1 µg/mL (≈ 2.81 µM), respectively.

Consider `CCCCOc1nc(N)c2nc(O)n(Cc3cccnc3C)c2n1` [Example 26, 2-Butoxy-8-hydroxy-9-(2-methyl-3-pyridylmethyl)adenine], for which the minimal effective concentration in the data set with mouse spleen cell is 0.001 µM. The Interferon-inducing activity with Balb/c male mouse (po, 0.03 mg/kg, 2 h) is 121 ± 11 U/ml; in the data set on Balb/c male mouse (po, 0.1 mg/kg, 2 h) it was 433 ± 366 U/ml; in the data set with Balb/c male mouse (po, 0.3 mg/kg, 2 h) it was 780 ± 190 U/ml. For the same compound, the figures for the solubility at 30 min in data set [1] (setting [4]), in data set [1] (setting [5]) and in data set [1] (setting [6]) were over 1000 µg/mL, 6 µg/mL (≈ 18.3 µM) and 3 µg/mL (≈ 9.14 µM), respectively.

Regarding `CCCCNc1nc(N)c2nc(O)n(Cc3cccnc3C)c2n1` [Example 28, 2-Butylamino-8-hydroxy-9-(2-methyl-3-pyridylmethyl)adenine], in the data set with mouse spleen cell, the minimal effective concentration is 0.01 µM. For the same compound, the Interferon-inducing activity with Balb/c male mouse (po, 0.1 mg/kg, 2 h) was determined as 186 ± 62 U/ml; with Balb/c male mouse (po, 0.3 mg/kg, 2 h) it was 1462 ± 260 U/ml. Further, the solubility at 30 min is over 1000 µg/mL in data set [1] (setting [4]), 8 µg/mL (≈ 24.4 µM) in data set [1] (setting [5]) and 4 µg/mL (≈ 12.2 µM) in data set [1] (setting [6]).

With `CCCCNc1nc(N)c2nc(O)n(Cc3ccc(C)nc3Cl)c2n1` [Example 29, 2-Butylamino-9-(2-chloro-6-methyl-3-pyridylmethyl)-8-hydroxyadenine], the minimal effective concentration with mouse spleen cell was determined as 0.01 µM. Also, in the data set on Balb/c male mouse (setting [3]), the Interferon-inducing activity is 619 ± 268 U/ml.

As for `COCCOc1nc(N)c2nc(O)n(Cc3cccnc3)c2n1` [Example 31, 8-Hydroxy-2-(2-methoxy)ethoxy-9-(3-pyridylmethyl)adenine], the “Solubility (level of compound in supernatant)” value in data set [1] (pH 2.5 buffer) was >1,000 μg/ml; in data set [1] (pH 5.5 buffer), 353 µg/mL; in data set [1] (pH 7.4 buffer), 322 µg/mL.

As to `COc1nc(N)c2nc(O)n(Cc3cccnc3)c2n1` [Example 32, 8-Hydroxy-2-methoxy-9-(3-pyridylmethyl)adenine], the solubility at 30 min in data set [1] (setting [4]) is over 1000 µg/mL; in data set [1] (setting [5]), 82 µg/mL (≈ 301 µM); in data set [1] (setting [6]) it was 25 µg/mL (≈ 91.8 µM).

Usually solubility stands for how much of the substance goes into solution per volume. A lower solubility goes with a poorly soluble substance.

For the origin of these results see patent publication US7521454B2 (Dainippon Sumitomo Pharma Co., Ltd., priority 2001, dated 2009).
